Target: Acetylcholinesterase (Electrophorus electricus, UniProt O42275)
Test: Inhibition of electric eel AChE using acetylthiocholine iodide as substrate after 15 mins by Ellman's method

Chain of Acetylcholinesterase (O42275 whole entry): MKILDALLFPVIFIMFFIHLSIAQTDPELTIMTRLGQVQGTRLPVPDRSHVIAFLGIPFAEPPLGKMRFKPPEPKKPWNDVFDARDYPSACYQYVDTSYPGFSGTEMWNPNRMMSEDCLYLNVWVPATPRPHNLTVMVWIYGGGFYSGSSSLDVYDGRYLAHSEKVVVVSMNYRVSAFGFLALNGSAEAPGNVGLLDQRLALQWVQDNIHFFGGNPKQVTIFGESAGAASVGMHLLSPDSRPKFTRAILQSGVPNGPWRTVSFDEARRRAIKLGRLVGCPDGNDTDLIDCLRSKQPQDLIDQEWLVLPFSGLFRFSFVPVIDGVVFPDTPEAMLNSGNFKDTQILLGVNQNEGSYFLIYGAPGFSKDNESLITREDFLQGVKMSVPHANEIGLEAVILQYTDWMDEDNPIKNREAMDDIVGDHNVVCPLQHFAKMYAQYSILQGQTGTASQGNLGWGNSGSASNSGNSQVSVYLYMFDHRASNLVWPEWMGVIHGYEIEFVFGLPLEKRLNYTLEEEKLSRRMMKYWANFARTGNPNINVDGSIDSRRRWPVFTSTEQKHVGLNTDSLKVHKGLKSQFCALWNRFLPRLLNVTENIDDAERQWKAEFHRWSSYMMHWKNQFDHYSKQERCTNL

SMILES | IC50 [µM]
COc1cc(CCC(=O)C2=C(CCc3ccc(O)c(OC)c3)NC(=O)NC2c2ccccc2)ccc1O (racemic) | 36.3
COc1cc(CCC(=O)C2=C(CCc3ccc(O)c(OC)c3)NC(=O)NC2c2ccc(O)cc2)ccc1O (racemic) | 17.3
COc1ccc(C2NC(=O)NC(CCc3ccc(O)c(OC)c3)=C2C(=O)CCc2ccc(O)c(OC)c2)cc1 (racemic) | 14.3
COc1cc(CCC(=O)C2=C(CCc3ccc(O)c(OC)c3)NC(=O)NC2c2ccc(O)c(OC)c2)ccc1O (racemic) | 56.4
COc1cc(CCC(=O)C2=C(CCc3ccc(O)cc3)NC(=O)NC2c2ccccc2)ccc1O (racemic) | 10.7
COc1cc(CCC2=C(C(=O)CCc3ccc(O)cc3)C(c3ccccc3)NC(=O)N2)ccc1O (racemic) | 20.9
COc1ccc(C2NC(=O)NC(CCc3ccc(O)cc3)=C2C(=O)CCc2ccc(O)c(OC)c2)cc1 (racemic) | 5.78
COc1ccc(C2NC(=O)NC(CCc3ccc(O)c(OC)c3)=C2C(=O)CCc2ccc(O)cc2)cc1 (racemic) | 9.1
O=C1NC(CCc2ccc(O)cc2)=C(C(=O)CCc2ccc(O)cc2)C(c2ccccc2)N1 (racemic) | 2.04
COc1ccc(C2NC(=O)NC(CCc3ccc(O)cc3)=C2C(=O)CCc2ccc(O)cc2)cc1 (racemic) | 1.34
O=C(/C=C/c1ccc(O)cc1)CC(=O)/C=C/c1ccc(O)cc1 [BISDEMETHOXYCURCUMIN] | 18.3
COc1cc(/C=C/C(O)=C/C(=O)/C=C/c2ccc(O)cc2)ccc1O [DEMETHOXYCURCUMIN] | 37.7
O=C(CCc1ccc(O)cc1)CC(=O)CCc1ccc(O)cc1 [LETESTUIANIN C] | 7.89
COc1cc(CCC(=O)CC(=O)CCc2ccc(O)c(OC)c2)ccc1O [TETRAHYDROCURCUMIN] | 41.2
COc1cc(CCC(=O)CC(=O)CCc2ccc(O)cc2)ccc1O [TETRAHYDRODEMETHOXYCURCUMIN] | 20.6

Reference: ChEMBL document CHEMBL2380191, “Novel racemic tetrahydrocurcuminoid dihydropyrimidinone analogues as potent acetylcholinesterase inhibitors” (Bioorg Med Chem Lett, 2013)
